How the values were obtained:
[1] = system: RKO cells; assay: CellTiter-Glo cell viability assay in RKO cells (WT KRas, express HGF); type: cell-based; conditions: FIG. 1A; 96 hours after treatment; gefitinib 5 μM, JNJ 38877605 1 μM, PD184161 0.01, 0.05 or 1 μM
Experimental: Cell viability assays were conducted using the CellTiter-Glo® Luminescent Cell Viability Assay kit purchased from Promega Corporation (Madison, Wis., US) and used per the manufacturer's protocol. Cells were seeded in 96-well plates at a density of 1×10^4 cells per well and cell viability was assessed at the indicated time points.

[2] = system: RKO cells; assay: Clonogenic (colony formation) assay in RKO cells; type: cell-based; conditions: FIG. 1B; 10 days after treatment; gefitinib 5 μM, JNJ 38877605 1 μM, PD184161 0.01, 0.05 or 1 μM
Experimental: (§1) For clonogenic assay cells were seeded in 6-well plates at a density of 400 cells per well and were treated as indicated. After colony formation (8-12 days), cells were stained with crystal violet (0.5% w/v) (see Kueng W., et al., Anal Biochem (1989) 182: 16-19), and the number of colonies was determined using ImageQuant TL software (GE Healthcare Life Sciences, Pittsburgh, Pa., US).
The effect of treatment with gefitinib alone or in combination with an inhibitor of MET kinase activity (using the inhibitor JNJ388777605) or inhibitor of MEK kinase activity (using the inhibitor PD184161) on viability and clonogenic growth was determined in RKO and HT29 cells.

[3] = system: HCT116 cells; assay: CellTiter-Glo cell viability assay in HCT116 cells (MT KRas, express HGF); type: cell-based; conditions: FIG. 2A; 96 hours after treatment; gefitinib 5 μM, JNJ 38877605 1 μM, PD184161 0.01 or 0.02 μM
Excerpt: Due to the presence of MT KRas, HCT116 cells have activated ERK signaling.

[4] = system: HCT116 cells; assay: Clonogenic (colony formation) assay in HCT116 cells; type: cell-based; conditions: FIG. 2B; 10 days after treatment; gefitinib 5 μM, JNJ 38877605 1 μM, PD184161 0.01 or 0.02 μM
Experimental: HCT116 cells, which are MT KRas, were treated with gefitinib (5 μM) in the absence or presence of a MET kinase inhibitor (JNJ 38877605; 1 μM) or a MEKI kinase inhibitor (PD184161; 0.01 μM or 0.02 μM) as indicated.
as §1

[5] = system: DiFi cells; assay: Caspase-Glo 3/7 activity assay in DiFi cells with or without CCD-18Co fibroblast conditioned medium; type: cell-based; conditions: FIG. 3C, 18 hr post-treatment; for caspase 3/7 activity (apoptosis), single agent: gefitinib 1 μM or JNJ 38877605 1 μM alone, no fibroblast conditioned media
Excerpt: Media were removed and replaced with serum-free MEM.

[6] = system: ERK 1/2; assay: Western blot of ERK 1/2 phosphorylation in RKO cells; type: cell-based; conditions: FIG. 1D, gefitinib dose or times post-treatment
Experimental: Immunoblotting was performed using standard procedures. Nitrocellulose membranes (GE Healthcare Life Sciences, Pittsburgh, Pa.) were blocked with 5% non-fat milk for 1 hour at room temperature, and incubated with primary antibodies overnight at 4° C. Primary antibodies used were anti-p-ERK1/2 (Cell Signaling Technology, Inc., Danvers, Mass., US) and anti-β-actin (Sigma-Aldrich Co. LLC, Saint Louis, Mo., US). Following washing with TBS-T buffer, membranes were incubated with horseradish peroxidase-conjugated secondary antibodies for 1 hour and then washed with TBS-T. Immunoblots were developed using the Amersham Western Blotting ECL chemiluminescent reagents (GE Healthcare Life Sciences, Pittsburgh, Pa., US). Protein loading was normalized by probing blots for the expression of β-actin.

[7] = patients with mCRC, Amado et al. 2008; cited from earlier work

Compound | effect on RKO cell viability [1] | effect on clonogenic growth (colony formation) of RKO cells [2] | effect on HCT116 cell viability [3] | effect on clonogenic growth (colony formation) of HCT116 cells [4] | caspase 3/7 activity (apoptosis), single agent [5] | phosphorylation status of ERK 1/2 (p-ERK 1/2 by Western blot) [6] | caspase 3/7 activity (apoptosis) in the presence of fibroblast conditioned media (FIB) ([5]; gefitinib 1 μM, JNJ 38877605 1 μM, CCD-18Co conditioned media) | KRas WT patients who benefit [7] [%]
Cn1cc(-c2ccc3nnc(C(F)(F)c4ccc5ncccc5c4)n3n2)cn1 [JNJ 38877605] | no apparent effect on cell viability | no apparent effect on clonogenic growth | no apparent effect on cell viability | no apparent effect on clonogenic growth | no apparent effect on induction of caspases/apoptosis | – | – | –
COc1cc2ncnc(Nc3ccc(F)c(Cl)c3)c2cc1OCCCN1CCOCC1 [gefitinib] | modest | no apparent effect on clonogenic growth | modestly decreased cell viability | no apparent effect on clonogenic growth | increase in caspase 3/7 activity | an increase in the amount of p-ERK 1/2 | inhibit gefitinib-induced apoptosis | –
PD184161 | no apparent effect on cell viability | no apparent effect on clonogenic growth | no apparent effect on cell viability | no apparent effect on clonogenic growth | – | – | – | –
panitumumab | – | – | – | – | – | – | – | 17

From US20170027951A1, “METHODS AND COMPOSITIONS TO TREAT CANCERS INVOLVING EGFR” (Southern Research Institute, priority 2015, published 2017)
